How the values were obtained:
[1] = test system: MDA-MB-231; assay: Cytotoxicity against human MDA-MB-231 cells assessed as inhibition of cell growth incubated for 72 hrs by MTT assay; assay type: functional, cell-based; conditions: MDA-MB-231, 72 h
[2] = test system: MDA-MB-453; assay: Cytotoxicity against human MDA-MB-453 cells assessed as inhibition of cell growth incubated for 72 hrs by MTT assay; assay type: functional, cell-based; conditions: MDA-MB-453, 72 h
[3] = Cytotoxicity against human HCEC cells assessed as inhibition of cell growth incubated for 72 hrs by MTT assay; assay type: toxicity, cell-based; conditions: human, HCEC cells
[4] = Cytotoxicity against human HEK293 cells assessed as inhibition of cell growth incubated for 72 hrs by MTT assay; assay type: toxicity, cell-based
[5] = Cytotoxicity against human MCF-10A cells assessed as inhibition of cell growth incubated for 72 hrs by MTT assay; assay type: toxicity, cell-based
[6] = test system: 4T1; assay: Cytotoxicity against mouse 4T1 cells assessed as inhibition of cell growth incubated for 72 hrs by MTT assay; assay type: functional, cell-based; conditions: 4T1, 72 h
[7] = test system: MCF7; assay: Cytotoxicity against human MCF7 cells assessed as inhibition of cell growth incubated for 72 hrs by MTT assay; assay type: functional, cell-based; conditions: MCF7, 72 h
[8] = Selectivity ratio of IC50 for cytotoxicity against human HCEC cells assessed as inhibition of cell growth to IC50 for cytotoxicity against human MCF7 cells assessed as inhibition of cell growth; assay type: toxicity, cell-based; conditions: HCEC cells versus MCF7 cells, read-out: Ratio IC50
[9] = Selectivity ratio of IC50 for cytotoxicity against human HEK293 cells assessed as inhibition of cell growth to IC50 for cytotoxicity against human MDA-MB-453 cells assessed as inhibition of cell growth; assay type: toxicity, cell-based; conditions: HEK293 cells versus MDA-MB-453 cells, read-out: Ratio IC50
[10] = Selectivity ratio of IC50 for cytotoxicity against human HCEC cells assessed as inhibition of cell growth to IC50 for cytotoxicity against human MDA-MB-231 cells assessed as inhibition of cell growth; assay type: toxicity, cell-based; conditions: HCEC cells versus MDA-MB-231 cells, read-out: Ratio IC50
[11] = Selectivity ratio of IC50 for cytotoxicity against human MCF-10A cells assessed as inhibition of cell growth to IC50 for cytotoxicity against […] cells assessed as inhibition of cell growth; assay type: toxicity, cell-based; conditions: MCF-10A cells versus 4T1 cells, read-out: Ratio IC50
[12] = Selectivity ratio of IC50 for cytotoxicity against human HEK293 cells assessed as inhibition of cell growth to IC50 for cytotoxicity against mouse 4T1 cells assessed as inhibition of cell growth; assay type: toxicity, cell-based; conditions: HEK293 cells versus 4T1 cells, read-out: Ratio IC50
[13] = Selectivity ratio of IC50 for cytotoxicity against human HEK293 cells assessed as inhibition of cell growth to IC50 for cytotoxicity against human MCF7 cells assessed as inhibition of cell growth; assay type: toxicity, cell-based; conditions: HEK293 cells versus MCF7 cells, read-out: Ratio IC50
[14] = Selectivity ratio of IC50 for cytotoxicity against human MCF-10A cells assessed as inhibition of cell growth to IC50 for cytotoxicity against human MDA-MB-453 cells assessed as inhibition of cell growth; assay type: toxicity, cell-based; conditions: MCF-10A cells versus MDA-MB-453 cells, read-out: Ratio IC50
[15] = Selectivity ratio of IC50 for cytotoxicity against human HCEC cells assessed as inhibition of cell growth to IC50 for cytotoxicity against human MDA-MB-453 cells assessed as inhibition of cell growth; assay type: toxicity, cell-based; conditions: HCEC cells versus MDA-MB-453 cells, read-out: Ratio IC50
[16] = Selectivity ratio of IC50 for cytotoxicity against human HCEC cells assessed as inhibition of cell growth to IC50 for cytotoxicity against mouse 4T1 cells assessed as inhibition of cell growth; assay type: toxicity, cell-based; conditions: HCEC cells versus 4T1 cells, read-out: Ratio IC50
[17] = Selectivity ratio of IC50 for cytotoxicity against human MCF-10A cells assessed as inhibition of cell growth to IC50 for cytotoxicity against human MDA-MB-231 cells assessed as inhibition of cell growth; assay type: toxicity, cell-based; conditions: MCF-10A cells versus MDA-MB-231 cells, read-out: Ratio IC50
[18] = Selectivity ratio of IC50 for cytotoxicity against human MCF-10A cells assessed as inhibition of cell growth to IC50 for cytotoxicity against human MCF7 cells assessed as inhibition of cell growth; assay type: toxicity, cell-based; conditions: MCF-10A cells versus MCF7 cells, read-out: Ratio IC50
[19] = Selectivity ratio of IC50 for cytotoxicity against human HEK293 cells assessed as inhibition of cell growth to IC50 for cytotoxicity against human MDA-MB-231 cells assessed as inhibition of cell growth; assay type: toxicity, cell-based; conditions: HEK293 cells versus MDA-MB-231 cells, read-out: Ratio IC50
[20] = target: Histone deacetylase 3 (Homo sapiens, UniProt O15379); assay: Inhibition of human recombinant HDAC3 at 1 uM measured after 30 mins by fluorescence based microplate assay relative to control
Sequence of Histone deacetylase 3 (O15379 whole entry): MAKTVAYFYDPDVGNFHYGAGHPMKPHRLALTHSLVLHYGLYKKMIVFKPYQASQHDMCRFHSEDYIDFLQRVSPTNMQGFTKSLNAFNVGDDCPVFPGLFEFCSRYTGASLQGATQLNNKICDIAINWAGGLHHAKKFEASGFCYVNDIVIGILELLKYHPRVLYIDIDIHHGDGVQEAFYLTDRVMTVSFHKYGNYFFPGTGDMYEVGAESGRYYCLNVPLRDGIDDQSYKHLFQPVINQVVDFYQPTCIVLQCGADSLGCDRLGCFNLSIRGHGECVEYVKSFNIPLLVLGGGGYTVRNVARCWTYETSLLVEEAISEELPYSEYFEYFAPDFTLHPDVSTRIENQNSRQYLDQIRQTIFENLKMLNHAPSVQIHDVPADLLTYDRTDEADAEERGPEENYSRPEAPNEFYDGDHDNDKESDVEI

| inhibition [20] [%] | SMILES | IC50 [1] [µM] | IC50 [2] [µM] | IC50 at 72 h [3] [µM] | IC50 at 72 h [4] [µM] | IC50 at 72 h [5] [µM] | IC50 [6] [µM] | IC50 [7] [µM] | selectivity ratio [8] | selectivity ratio [9] | selectivity ratio [10] | selectivity ratio [11] | selectivity ratio [12] | selectivity ratio [13] | selectivity ratio [14] | selectivity ratio [15] | selectivity ratio [16] | selectivity ratio [17] | selectivity ratio [18] | selectivity ratio [19] |
| --- | --- | --- | --- | --- | --- | --- | --- | --- | --- | --- | --- | --- | --- | --- | --- | --- | --- | --- | --- | --- |
| – | CCCCNNC(=O)c1cnc(NC(=O)c2ccc3[nH]ccc3c2)cn1 | 1.69 | 4.05 | 130 | 107 | 105 | 1.43 | 2.44 | – | – | – | – | – | – | – | – | – | – | – | – |
| – | CCCNNC(=O)c1cnc(Nc2cccc3ccccc23)cn1 | 1.74 | 2.89 | 126 | 116 | 112 | 0.94 | 1.51 | > 40 | > 40 | > 40 | > 40 | > 40 | > 40 | > 40 | > 40 | > 40 | > 40 | > 40 | > 40 |
| – | CCCNNC(=O)c1cnc(N2CCCCC2)cn1 | 132 | 2.87 | 163 | 118 | 110 | 0.89 | 2.44 | > 40 | > 40 | > 40 | > 40 | > 40 | > 40 | > 40 | > 40 | > 40 | > 40 | > 40 | > 40 |
| – | CCCNNC(=O)c1cnc(N)cn1 | 0.88 | 2.43 | 220 | 141 | 139 | 1.08 | 0.99 | > 40 | > 40 | > 40 | > 40 | > 40 | > 40 | > 40 | > 40 | > 40 | > 40 | > 40 | > 40 |
| – | CCCCNNC(=O)c1cnccn1 | 1.17 | 2.52 | 175 | 101 | 103 | 0.88 | 2.44 | > 40 | > 40 | > 40 | > 40 | > 40 | > 40 | > 40 | > 40 | > 40 | > 40 | > 40 | > 40 |
| – | CCCCNNC(=O)c1cnc(N2CCCCC2)cn1 | 2.93 | 6.79 | 119 | 101 | 104 | 3.86 | 1.87 | – | – | – | – | – | – | – | – | – | – | – | – |
| – | CCCCNNC(=O)c1cnc(NC(C)=O)cn1 | 3.05 | 7.94 | 187 | 229 | 106 | 2.74 | 1.65 | – | – | – | – | – | – | – | – | – | – | – | – |
| – | CCCCNNC(=O)c1cnc(NC(=O)c2ccc3ncccc3c2)cn1 | 2.84 | 4.92 | 234 | 264 | 220 | 2.92 | 1.36 | > 40 | > 40 | > 40 | > 40 | > 40 | > 40 | > 40 | > 40 | > 40 | > 40 | > 40 | > 40 |
| – | CCCCNNC(=O)c1cnc(N)cn1 | 1.25 | 3.33 | 215 | 133 | 118 | 1.27 | 1.81 | > 40 | > 40 | > 40 | > 40 | > 40 | > 40 | > 40 | > 40 | > 40 | > 40 | > 40 | > 40 |
| > 70 | CCCNNC(=O)c1cnc(Nc2ccccc2)cn1 | 1.88 | 5.44 | 196 | 218 | 205 | 2.76 | 3.28 | > 40 | > 40 | > 40 | > 40 | > 40 | > 40 | > 40 | > 40 | > 40 | > 40 | > 40 | > 40 |
| – | CCCCNNC(=O)c1cnc(Nc2ccccc2)cn1 | 1.91 | 5.18 | 180 | 207 | 138 | 2.17 | 1.14 | > 40 | > 40 | > 40 | > 40 | > 40 | > 40 | > 40 | > 40 | > 40 | > 40 | > 40 | > 40 |
| – | CCCNNC(=O)c1cnc(NC(C)=O)cn1 | 0.97 | 1.93 | 164 | 118 | 142 | 0.92 | 1.21 | > 40 | > 40 | > 40 | > 40 | > 40 | > 40 | > 40 | > 40 | > 40 | > 40 | > 40 | > 40 |
| – | CCCNNC(=O)c1cnccn1 | 1.07 | 2.49 | 128 | 134 | 117 | 1.14 | 1.39 | > 40 | > 40 | > 40 | > 40 | > 40 | > 40 | > 40 | > 40 | > 40 | > 40 | > 40 | > 40 |
| – | CCCCNNC(=O)c1cnc(Nc2cccc3ccccc23)cn1 | 2.02 | 4.67 | 151 | 189 | 114 | 0.98 | 4.16 | > 40 | > 40 | > 40 | > 40 | > 40 | > 40 | > 40 | > 40 | > 40 | > 40 | > 40 | > 40 |
